Ends that are not written are not given here.
What was measured:
[1] = system: YB-1 binding to the EGFR promoter; conditions: previous work; cited from earlier work
Experimental: After 72 h, the CPP reduced HER-2 and EGFR protein levels in AU565 cells (Figure 3A). […] Further, in SUM149 cells, EGFR protein and mRNA levels were decreased (Figure 3C-D).

[2] = system: YB-1 binding to the EGFR promoter; test: Electrophoretic mobility shift assay (gel shift), SUM149 nuclear extracts; format: biochemical, human; conditions: SUM149 nuclear protein 5 µg pre-incubated 20 min with 25 µM peptide, EGFR2a oligonucleotides
Experimental: The gel shift assay was performed using EGFR2a oligonucleotides as previously described. Briefly, SUM149 cells were harvested and cytoplasmic/nuclear fractions were obtained using the NE-PER kit followed by EMSA using the Lightshift Chemiluminescent EMSA kit (both kits from Pierce Biotechnology, Rockford, IL). Nuclear extracts were confirmed to contain RSK and YB-1 by immunoblotting. Nuclear protein (5 µg) was pre-incubated for 20 min with unlabeled oligonucleotide plus acetic acid control, scrambled peptide (25 µM), or CPP (25 µM or 50 µM) prior to the addition of biotin-labeled oligonucleotide. Chicken anti-YB-1 (1 µg) was used as positive control. Reactions were run on a non-denaturing polyacrylamide gel, transferred to a nylon membrane, cross-linked at 120 mJ/cm^2 using a Stratalinker (Stratagene, La Jolla, CA) and visualized with chemiluminescence (Pierce Biotechnology).

SUM149 cells = test: Monolayer growth assay, SUM149; format: cell-based, human; conditions: SUM149, 72 h, 0–50 µM scrambled peptide, MTS
Experimental: (§3) For monolayer assays, cells were plated at 5000 cells per well in a 96 well plate. The following day cells were treated with diluent, 0–50 µM of scrambled peptide, or 0–50 µM CPP. The BT474, BT474-m1, HR5 and HR6 cells were also tested in combination with trastuzumab (BC Cancer Agency pharmacy, Vancouver, BC) at 20 µg/mL. […] Growth was shown as a percentage of diluent control and changes in growth were considered significant at P<0.01.

184htert cells = test: Monolayer growth assay, normal immortalized mammary epithelial cells; format: cell-based, human; conditions: 72 h, MTS proliferation assay, 0–50 µM
Experimental: For monolayer assays, cells were plated at 5000 cells per well in a 96 well plate. The following day cells were treated with diluent, 0–50 µM of scrambled peptide, or 0–50 µM CPP. […] Growth was shown as a percentage of diluent control and changes in growth were considered significant at P<0.01.

[3] = system: EpCAM^+ primary normal human breast epithelial cells; test: Normal mammary epithelial cells assay, MTS growth; format: cell-based; conditions: cells from reduction mammoplasties of two patients, 6 or 25 µM, 72 h
[4] = system: EpCAM^+ primary normal human breast epithelial cells; test: Normal mammary epithelial cells assay, colony-forming cell (CFC) assay; format: cell-based; conditions: cells from two patients, 6 or 25 µM for 48 hours, colonies counted 7 days post-seeding
Experimental: EpCAM^+ primary normal human breast epithelial cells from two patients were obtained, prepared, and isolated as previously described, [36]. In all subsequent experiments, the primary epithelial cells were grown in Epicult-B media (StemCell Technologies, Vancouver, BC) supplemented with 5% fetal calf serum. For the colony-forming cell (CFC) assay, EpCAM^+ cells from each patient were first seeded at 7000 cells/well into a 96 well plate and treated the following day with either diluent, scrambled peptide (6 or 25 µM), or CPP (6 or 25 µM) in triplicate wells for 48 hours. Following this peptide incubation, cells were harvested with trypsin, a single cell suspension was generated, and cells were seeded into the CFC assay as previously described, [37]. Colonies were counted 7 days post-seeding.

P-YB-1^S102 [5] = test: Immunoblotting of P-YB-1^S102 in SUM149 cells; format: cell-based, human
Experimental: (§1) Cell lines used herein were evaluated for YB-1, the activating kinases RSK and AKT, and the downstream targets EGFR and HER-2. […] Proteins were extracted using ELB plus protease and phosphatase inhibitors and western blotting was performed as previously described. The following antibodies were used to detect proteins by immunoblotting (unless otherwise indicated, all antibodies were from Cell Signaling Technology, Danvers, MA): P-YB-1^S102 (1/500), YB-1 (1/2000, Abcam, Cambridge, MA), EGFR (1/5000, Stressgen, San Diego, CA), P-p90RSK^S380 (1/500), RSK1/RSK2/RSK3 (1/1000), HER-2 (1/1000, Abcam), AKT (1/1000), creb (1/1000), pan-actin (1/1000), vinculin (1/1000). Blots were quantified using ImageJ software.

P-YB-1^S102 [6] = test: Immunoblotting of P-YB-1^S102 in AU565 cells; format: cell-based, human; conditions: 12.5–50 µM CPP, 72 h, western blot
Experimental: as §1

P-YB-1^S102 [7] = test: Immunoblotting of P-YB-1^S102 in LNCap cells; format: cell-based, human; conditions: 12.5–50 µM CPP, 72 h, western blot
Experimental: as §1

HER-2 [8] = test: Immunoblotting of HER-2 protein in AU565 cells; format: cell-based, human; conditions: 72 h, western blot
Experimental: as §1

EGFR [9] = test: Immunoblotting of EGFR protein in AU565 cells; format: cell-based, human; conditions: 72 h, western blot
Experimental: as §1

EGFR [10] = test: Immunoblotting of EGFR protein in SUM149 cells; format: cell-based, human; conditions: 72 h, western blot
Experimental: as §1

HER-2 [11] = test: Real-time quantitative RT-PCR of HER-2 transcript in AU565 cells; format: cell-based, human; conditions: 50 µM CPP, 24 h, qRT-PCR, 18S housekeeping
Experimental: (§2) RNA was isolated from log growing AU565 and SUM149 cells treated with 50 µM scrambled CPP or 50 µM CPP for 24 h using the RNeasy Mini kit from Qiagen (Mississauga, ON). The RNA was reverse transcribed and amplified using HER-2 (for AU565 cells) or EGFR (for SUM149 and AU565 cells) specific primers and probes (Applied Biosystems, Foster City, CA). 18S mRNA was quantified as a housekeeping gene (Applied Biosystems).

EGFR [12] = test: Real-time quantitative RT-PCR of EGFR transcript in AU565 cells; format: cell-based, human; conditions: 50 µM CPP, 24 h, qRT-PCR, 18S housekeeping
Experimental: as §2

EGFR [13] = test: Real-time quantitative RT-PCR of EGFR transcript in SUM149 cells; format: cell-based, human; conditions: 50 µM CPP, 24 h, qRT-PCR
Experimental: as §2

BT474 cells = test: Monolayer growth assay, BT474, with or without trastuzumab; format: cell-based, human; conditions: 72 h, MTS
Experimental: as §3

BT474-m1 cells = test: Monolayer growth assay, BT474-m1, with or without trastuzumab; format: cell-based, human; conditions: 72 h, MTS
Experimental: as §3

HR5 cells = test: Monolayer growth assay, HR5 (trastuzumab resistant), with or without trastuzumab; format: cell-based, human; conditions: 72 h, MTS
Experimental: as §3

HR6 cells = test: Monolayer growth assay, HR6 (trastuzumab resistant), with or without trastuzumab; format: cell-based, human; conditions: 72 h, MTS
Experimental: as §3

COc1cccc(-c2cc(=O)c3ccccc3o2)c1N [PD098059]
YB-1 binding to the EGFR promoter [1]: reverse YB-1 binding

CC(=O)O[C@@H]1[C@@H](OC(C)=O)[C@@H](O)[C@H](Oc2c(-c3ccc(O)cc3)oc3cc(O)cc(O)c3c2=O)O[C@H]1C [SL0101]
YB-1 binding to the EGFR promoter [1]: reverse YB-1 binding

RALKYGVRP [scrambled peptide]
YB-1 binding to the EGFR promoter (gel shift) [2]: bound with high affinity | effect on growth (SUM149 cells): no effect | growth of normal human mammary epithelial cells (184htert cells): neither the scrambled control peptide nor the CPP inhibited growth | growth of normal breast epithelial cells (MTS) [3]: neither the scrambled peptide nor the CPP had any growth effect | growth of normal breast epithelial cells (CFC output) [4]: neither the scrambled peptide nor the CPP had any growth effect

RQIKIWFQNRRMKWKKPRKYLRSVG-OH [CPP]
phosphorylation of YB-1^S102 (P-YB-1^S102 [5]; 12.5–50 µM CPP, 72 h, western blot): decreased phosphorylation | decrease of P-YB-1^S102 (P-YB-1^S102 [5]; 1 h, western blot quantified using ImageJ, relative P-YB-1:YB-1): 32% | phosphorylation of YB-1^S102 (P-YB-1^S102 [6]): decreased phosphorylation | phosphorylation of YB-1^S102 (P-YB-1^S102 [7]): decreased phosphorylation | HER-2 protein level (HER-2 [8]): reduced | EGFR protein level (EGFR [9]): reduced | EGFR protein level (EGFR [10]): decreased | reduction of HER-2 transcript level (HER-2 [11]): ~50% | reduction of EGFR transcript level (EGFR [12]): ~50% | EGFR mRNA level (EGFR [13]): decreased | YB-1 binding to the EGFR promoter (gel shift) [2]: blocked binding | sensitivity to trastuzumab (BT474 cells; BT474, CPP 12.5 or 50 µM with trastuzumab 20 µg/ml): increased the sensitivity | growth, CPP alone (BT474 cells; BT474, CPP 12.5 or 50 µM): suppressed the growth | sensitivity to trastuzumab (BT474-m1 cells; BT474-m1, CPP 12.5 or 50 µM with trastuzumab 20 µg/ml): increased the sensitivity | growth, CPP alone (BT474-m1 cells; BT474-m1, CPP 12.5 or 50 µM): suppressed the growth | sensitivity to trastuzumab (HR5 cells; HR5, CPP with trastuzumab 20 µg/ml): overcome drug insensitivity | growth, CPP (HR5 cells; HR5 trastuzumab resistant cells): significantly suppress growth | sensitivity to trastuzumab (HR6 cells; HR6, CPP with trastuzumab 20 µg/ml): overcome drug insensitivity | growth, CPP (HR6 cells; HR6 trastuzumab resistant cells): significantly suppress growth
